In patent US5385911A, “Anti-herpes castanospermine esters” (priority 1990, dated 1995):

Columns and labels:
HSV1 strain 17i = assay: plaque-reduction assay, HSV1 strain 17i in MRC5 cells; format: cell-based, HSV1 strain 17i; human embryonic fibroblast cells (MRC5); settings: Human alphaherpesvirus 1, 72 h, 3 days incubation, read-out: ED50 HSVI
Experimental: (§1) Antiviral activity of the compounds of formula (1) can assessed by the plaque-reduction assay as previously described by Tyms et al., J. Antimicrobial Chemotherapy, 8, 65-72 (1981). Briefly, human embryonic fibroblast cells (MRC5) were cultured in 24-well tissue culture trays in the presence of Eagles' minimum essential medium (MEM) supplemented with 10% fetal calf serum. When cell monolayers were semi-confluent, they were inoculated with 30-50 plaque-forming units of HSV2 strain HG52 or HSV1 strain 17[…]. General Virology, 55, 315-331 (1981). […] After 3 days incubation, cells were fixed in 10% formalin in saline and subsequently stained with 0.3% methylene blue. Dose-responselines were plotted from the mean number of plaques present versus the log of the concentration of the compound. The 50% effective dose (ED50) was computed after linear regression analysis.

HSV2 strain HG52 = assay: plaque-reduction assay, HSV2 strain HG52 in MRC5 cells; format: cell-based, HSV2 strain HG52; human embryonic fibroblast cells (MRC5); settings: Human alphaherpesvirus 2, 72 h, 3 days incubation, read-out: ED50 HSVII
Experimental: as §1

HIV glycoproteins = settings: cited from earlier work; for formation of syncytia: HIV
HSV = settings: cited from earlier work
Herpes infections = settings: in man; cited from earlier work
HSV1 and HSV2 = settings: cited from earlier work
[1] = at high dosage; cited from earlier work
[2] = system: viral protein glycosylation; settings: cited from earlier work

CCCCCCCC(=O)O[C@H]1CN2CC[C@H](O)[C@@H]2[C@@H](O)[C@@H]1O [MDL 29,797, [1S-(1α,6β,7α,8β,8aβ)]-octahydro-1,6,7,8-indolizinetetrol 6-octanoate]
EC50 (HSV1 strain 17i): ≤ 10 µg/mL
EC50 (HSV2 strain HG52): ≤ 5 µg/mL

CCC=CCC(=O)O[C@H]1CN2CC[C@H](O)[C@@H]2[C@@H](O)[C@@H]1O [MDL 29,513, [1S-(1α,6β,7α,8β,8aβ)]-octahydro-1,6,7,8-indolizinetetrol 6-(3-hexenoate)]
EC50 (HSV1 strain 17i): ≤ 5 µg/mL
EC50 (HSV2 strain HG52): ≤ 5 µg/mL

O=CC[C@@H](O)[C@H](O)[C@H](O)CO [2-deoxy-D-glucose]
formation of syncytia (HIV glycoproteins): block the formation of syncytia
expression of HIV glycoproteins (HIV glycoproteins): inhibit expression of HIV glycoproteins
activity against HSV (HSV): active against HSV
efficacy in the treatment of Herpes infections (Herpes infections): has shown efficacy in the treatment of Herpes infections in man

Nc1nc2c(ncn2COCCO)c(=O)[nH]1 [Acyclovir]
antiviral effect (HSV1 and HSV2): potent antiviral effect
solubility [1]: Poor solubility at high dosage

Cc1ccc(C(=O)O[C@H]2CN3CC[C@H](O)[C@@H]3[C@@H](O)[C@@H]2O)cc1 [MDL 29,204]
EC50 (HSV2 strain HG52): ≤ 20 µg/mL

O=CC[C@@H](O)[C@H](O)[C@H](O)CO [2-deoxyglucose]
inhibition of viral protein glycosylation [2]: inhibit viral protein glycosylation by a different mechanism

CCC(O)[C@H](N)C(=O)O (stereo partly drawn) [β-hydroxy-norvaline]
formation of syncytia (HIV glycoproteins): block the formation of syncytia
expression of HIV glycoproteins (HIV glycoproteins): inhibit expression of HIV glycoproteins

CCCC(=O)O[C@H]1CN2CC[C@H](O)[C@@H]2[C@@H](O)[C@@H]1O [MDL 28,574, [1S-(1α,6β,7α,8β,8aβ)]-octahydro-1,6,7,8-indolizinetetrol 6-butanoate]
EC50 (HSV1 strain 17i): ≤ 75 µg/mL
EC50 (HSV2 strain HG52): ≤ 22 µg/mL

O=C(O[C@H]1CN2CC[C@H](O)[C@@H]2[C@@H](O)[C@@H]1O)c1ccccc1 [MDL 43,305, [1S-(1α,6β,7α,8β,8aβ)]-octahydro-1,6,7,8-indolizinetetrol 6-benzoate]
EC50 (HSV2 strain HG52): ≤ 20 µg/mL

2-deoxy-2-fluoroglucose
inhibition of viral protein glycosylation [2]: inhibit viral protein glycosylation by a different mechanism
